According to patent US11661426B2, “Imidazole-containing inhibitors of ALK2 kinase” (BioCryst Pharmaceuticals, Inc., priority 2017, dated 2023):

Target: ALK2 (Homo sapiens (Human), UniProt Q04771)
Assay: ALK2 inhibition, LanthaScreen Eu Kinase Binding Assay (ThermoFisher Scientific / Life Technologies)
Settings: read-out: Measured Ki (IC50) Value for Compounds: IC50
Procedure: Biochemical assays to measure the inhibitory effects of the compounds were performed by ThermoFisher Scientific (Life Technologies). ALK2 inhibition was tested using LanthaScreen™ Eu Kinase Binding Assay screening protocol.

Sequence of ALK2 (Q04771 21-509): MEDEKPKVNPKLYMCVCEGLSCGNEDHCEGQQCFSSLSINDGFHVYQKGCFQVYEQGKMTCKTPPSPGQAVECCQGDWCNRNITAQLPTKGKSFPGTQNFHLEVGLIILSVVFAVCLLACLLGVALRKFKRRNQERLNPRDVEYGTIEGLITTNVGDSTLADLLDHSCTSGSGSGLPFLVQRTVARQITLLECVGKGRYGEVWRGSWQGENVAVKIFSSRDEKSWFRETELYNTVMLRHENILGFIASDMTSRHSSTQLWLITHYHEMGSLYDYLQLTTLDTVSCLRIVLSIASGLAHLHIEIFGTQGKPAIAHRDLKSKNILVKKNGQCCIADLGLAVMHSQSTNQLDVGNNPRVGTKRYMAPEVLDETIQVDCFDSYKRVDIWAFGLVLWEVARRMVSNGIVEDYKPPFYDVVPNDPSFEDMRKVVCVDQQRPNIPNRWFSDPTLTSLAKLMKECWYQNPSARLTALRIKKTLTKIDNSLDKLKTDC

Structure (SMILES) | IC50
Cn1cnc(Nc2nc(Cl)nc3ccoc23)c1 [Compound 1b, 2-chloro-N-(1-methyl-1H-imidazol-4-yl)furo[3,2-d]pyrimidin-4-amine] | > 1000 nM
Cn1cnc(Nc2nc(N3CCC[C@H]3CO)nc3ccoc23)c1 [Compound 2a, (S)-(1-(4-((1-methyl-1H-imidazol-4-yl)amino)furo[3,2-d]pyrimidin-2-yl)pyrrolidin-2-yl)methanol] | 100 to 1000 nM
Cn1cnc(Nc2nc(N3CCC[C@@H]3CO)nc3ccoc23)c1 [Compound 3a, (R)-(1-(4-((1-methyl-1H-imidazol-4-yl)amino)furo[3,2-d]pyrimidin-2-yl)pyrrolidin-2-yl)methanol] | > 1000 nM
Cn1cnc(Nc2nc(Cl)nn3cccc23)c1 [Compound 4b, 2-chloro-N-(1-methyl-1H-imidazol-4-yl)pyrrolo[2,1-f][1,2,4]triazin-4-amine] | > 1000 nM
Cn1cnc(Nc2nc(N3CCCC3c3ccccn3)nn3cccc23)c1 (stereo not shown) [Compound 4c, N-(1-methyl-1H-imidazol-4-yl)-2-(2-(pyridin-2-yl)pyrrolidin-1-yl)pyrrolo[1,2-f][1,2,4]triazin-4-amine] | < 100 nM
Cn1cnc(Nc2nc(N3CCCC3c3ccccn3)nc3ccoc23)c1 (stereo not shown) [Compound 5a, N-(1-methyl-1H-imidazol-4-yl)-2-(2-(pyridin-2-yl)pyrrolidin-1-yl)furo[3,2-d]pyrimidin-4-amine] | < 100 nM
Cn1cnc(Nc2nc(N3CCC[C@H]3CO)nn3cccc23)c1 [Compound 6a, (S)-(1-(4-(1-methyl-1H-imidazol-4-ylamino)pyrrolo[1,2-f][1,2,4]triazin-2-yl)pyrrolidin-2-yl)methanol] | 100 to 1000 nM
Cn1cnc(Nc2nc(N3CCC[C@@H]3CO)nn3cccc23)c1 [Compound 7a, (R)-(1-(4-(1-methyl-1H-imidazol-4-ylamino)pyrrolo[1,2-f][1,2,4]triazin-2-yl)pyrrolidin-2-yl)methanol] | > 1000 nM
OC[C@@H]1CCCN1c1nc(Nc2cn(-c3ccccc3)cn2)c2cccn2n1 [Compound 8c, (S)-(1-(4-((1-phenyl-1H-imidazol-4-yl)amino)pyrrolo[2,1-f][1,2,4]triazin-2-yl)pyrrolidin-2-yl)methanol] | < 100 nM
c1ccc(-n2cnc(Nc3nc(N4CCCC4c4ccccn4)nn4cccc34)c2)cc1 (stereo not shown) [Compound 9a, N-(1-phenyl-1H-imidazol-4-yl)-2-(2-(pyridin-2-yl)pyrrolidin-1-yl)pyrrolo[2,1-f][1,2,4]triazin-4-amine] | 100 to 1000 nM
Cn1cnc(Nc2nc(N3CCCC3c3ccccc3)nn3cccc23)c1 (stereo not shown) [Compound 10a, N-(1-methyl-1H-imidazol-4-yl)-2-(2-phenylpyrrolidin-1-yl)pyrrolo[2,1-f][1,2,4]triazin-4-amine] | < 100 nM
Cn1cnc(Nc2nc(N3CCCC3c3cccnc3)nc3ccoc23)c1 (stereo not shown) [Compound 11a, N-(1-methyl-1H-imidazol-4-yl)-2-(2-(pyridin-3-yl)pyrrolidin-1-yl)furo[3,2-d]pyrimidin-4-amine] | < 100 nM

Now from value to compound:

IC50 | Structure (SMILES)
< 100 nM | Cn1cnc(Nc2nc(N3CCCC3c3ccccn3)nc3ccsc23)c1 (stereo not shown) [Compound 12c, N-(1-methyl-1H-imidazol-4-yl)-2-(2-(pyridin-2-yl)pyrrolidin-1-yl)thieno[3,2-d]pyrimidin-4-amine]
< 100 nM | Cn1cnc(Nc2nc(N3CCCC3c3ccccc3)nc3ccoc23)c1 (stereo not shown) [Compound 13a, N-(1-methyl-1H-imidazol-4-yl)-2-(2-phenylpyrrolidin-1-yl)furo[3,2-d]pyrimidin-4-amine]
< 100 nM | OC[C@@H]1CCCN1c1nc(Nc2cn(-c3ccccc3)cn2)c2occc2n1 [Compound 14b, (S)-(1-(4-((1-phenyl-1H-imidazol-4-yl)amino)furo[3,2-d]pyrimidin-2-yl)pyrrolidin-2-yl)methanol]
< 100 nM | Cn1cnc(Nc2nc(N3CCC[C@H]3c3ccccc3)nn3cccc23)c1 [Compound 15a, (S)—N-(1-methyl-1H-imidazol-4-yl)-2-(2-phenylpyrrolidin-1-yl)pyrrolo[2,1-f][1,2,4]triazin-4-amine]
< 100 nM | OC[C@@H]1CCCN1c1nc(Nc2cn(-c3ccccc3)cn2)c2sccc2n1 [Compound 16b, (S)-(1-(4-((1-phenyl-1H-imidazol-4-yl)amino)thieno[3,2-d]pyrimidin-2-yl)pyrrolidin-2-yl)methanol]
100 to 1000 nM | C[C@H](Nc1nc(Nc2cn(-c3ccccc3)cn2)c2sccc2n1)c1ccccc1 [Compound 17a, (S)—N4-(1-phenyl-1H-imidazol-4-yl)-N2-(1-phenylethyl)thieno[3,2-d]pyrimidine-2,4-diamine]
< 100 nM | Cn1cnc(Nc2nc(N3CCC[C@H]3c3ccccn3)nn3cccc23)c1 [Compound 18a, (S)—N-(1-methyl-1H-imidazol-4-yl)-2-(2-(pyridin-2-yl)pyrrolidin-1-yl)pyrrolo[2,1-f][1,2,4]triazin-4-amine]
< 100 nM | Cn1cnc(Nc2nc(N3CCCC3c3cccnc3)nn3cccc23)c1 (stereo not shown) [Compound 19a, N-(1-methyl-1H-imidazol-4-yl)-2-(2-(pyridin-3-yl)pyrrolidin-1-yl)pyrrolo[2,1-f][1,2,4]triazin-4-amine]
100 to 1000 nM | Cn1cnc(Nc2nc(N3CCCC3c3ccncc3)nn3cccc23)c1 (stereo not shown) [Compound 20a, N-(1-methyl-1H-imidazol-4-yl)-2-(2-(pyridin-4-yl)pyrrolidin-1-yl)pyrrolo[2,1-f][1,2,4]triazin-4-amine]
< 100 nM | C[C@H](Nc1nc(Nc2cn(C)cn2)c2ccccc2n1)c1ccccc1 [Compound 21c, (S)—N4-(1-methyl-1H-imidazol-4-yl)-N2-(1-phenylethyl)quinazoline-2,4-diamine]
< 100 nM | Cc1cc2c(Nc3cn(-c4ccccc4)cn3)nc(N3CCC[C@H]3CO)nc2s1 [Compound 22c, (S)-(1-(6-methyl-4-((1-phenyl-1H-imidazol-4-yl)amino)thieno[2,3-d]pyrimidin-2-yl)pyrrolidin-2-yl)methanol]
< 100 nM | Cc1cc2nc(N3CCC[C@H]3CO)nc(Nc3cn(-c4ccccc4)cn3)c2s1 [Compound 23c, (S)-(1-(6-methyl-4-((1-phenyl-1H-imidazol-4-yl)amino)thieno[3,2-d]pyrimidin-2-yl)pyrrolidin-2-yl)methanol]
100 to 1000 nM | C[C@H](Nc1nc(Nc2cn(-c3ccccc3)cn2)c2ccccc2n1)c1ccccc1 [Compound 24b, (S)—N4-(1-phenyl-1H-imidazol-4-yl)-N2-(1-phenylethyl)quinazoline-2,4-diamine]
< 100 nM | OC[C@@H]1CCCN1c1nc(Nc2cn(-c3ccc(F)cc3)cn2)c2cccn2n1 [Compound 25c, (S)-(1-(4-((1-(4-fluorophenyl)-1H-imidazol-4-yl)amino)pyrrolo[2,1-f][1,2,4]triazin-2-yl)pyrrolidin-2-yl)methanol]
100 to 1000 nM | OC[C@@H]1CCCN1c1nc(Nc2cn(C3CC3)cn2)c2cccn2n1 [Compound 26c, (S)-(1-(4-((1-cyclopropyl-1H-imidazol-4-yl)amino)pyrrolo[2,1-f][1,2,4]triazin-2-yl)pyrrolidin-2-yl)methanol]
100 to 1000 nM | c1ccc(C2CCCN2c2nc(Nc3cn(C4CC4)cn3)c3cccn3n2)nc1 (stereo not shown) [Compound 27a, N-(1-cyclopropyl-1H-imidazol-4-yl)-2-(2-(pyridin-2-yl)pyrrolidin-1-yl)pyrrolo[2,1-f][1,2,4]triazin-4-amine]
